Results as given in PMC8496750, “Identification of the organic anion transporting polypeptides responsible for the hepatic uptake of the major metabolite of epyrifenacil, S‐3100‐CA, in mice” (Pharmacology Research & Perspectives, 2021).

Columns and labels:
[1] = ^14C‐plasma, liver, and kidney distribution study with or without OATP inhibitors; assay type: in vivo, Crl:CD1(ICR) mice; settings: for Kidney/plasma ratio of ^14C / Liver/plasma ratio of ^14C / ^14C‐concentration in liver: 2 h; for Liver/plasma ratio of ^14C‐concentration: oral or intraperitoneal co‐administration of DGX
Procedure: Crl:CD1(ICR) mice at the age of 7 weeks were purchased from Charles River Laboratories Japan, Inc., Hino Breeding Center. The mice at the age of 8 or 9 weeks were dosed after completing a 7‐day quarantine period and an additional 0‐ to 7‐day acclimatization period. All animal experiments were conducted in accordance with the Guidance for the Care and Use of Laboratory Animals in our laboratory, which corresponds to the Guidelines for Proper Conduct of Animal Experiments (Science Council of Japan). Animals were maintained under constant environmental conditions: room temperature, 21−25°C; relative humidity, 55% ±15%; ventilation, 10 air exchanges per hour; and artificial lighting, from 8:00 am to 8:00 pm. The animals were provided with pelleted diet and water ad libitum. […] All animals were euthanized by bleeding from the abdominal artery under anesthesia.
[^14C]Epyrifenacil was isotopically diluted with the unlabeled test compound to adjust the specific activity to 5.00 MBq/mg. After evaporation of the solvent under nitrogen gas flow, labeled material was suspended in 0.5% (w/v) methylcellulose solution at a concentration of 1 mg/5 ml by grinding in a mortar. The suspension was stored frozen until the start of dosing. The radiochemical purity of the dosing suspension was analyzed by radio‐HPLC and was confirmed to be >99%. […] These dosing suspensions were stored in a refrigerator until dosing commenced.
Three mice per sex at 8 weeks old were given a single oral dose of [^14C]epyrifenacil at 1 mg/kg with or without co‐administration of OATP inhibitors. […] At 2 h after administration of [^14C]epyifenacil, the animals were euthanized by whole blood collection from the abdominal aorta under anesthesia with isoflurane. The sampling time point was selected as the time around T max based on the result of the blood ^14C‐concentration study. Then, the liver and kidney were dissected out, and the amount of ^14C was measured. Aliquots of heparinized blood samples were separated into blood cells and plasma by centrifugation at 2000g for 10 min at 4°C. The total weight of the liver and kidney was determined for each animal. Two aliquots of plasma and tissue samples (approximately 0.05–0.1 g) were weighed in a glass vial, and the radioactivity was measured.

[2] = set-up: method as in PMID 34908893; settings: mice; 90‐day; cited from earlier work
mouse Oatp1a1 = biological target: T1, mouse Oatp1a1 (Mus musculus, UniProt Q9QXZ6); settings: inhibitor at 100 μM
T1 sequence (Q9QXZ6 1-670): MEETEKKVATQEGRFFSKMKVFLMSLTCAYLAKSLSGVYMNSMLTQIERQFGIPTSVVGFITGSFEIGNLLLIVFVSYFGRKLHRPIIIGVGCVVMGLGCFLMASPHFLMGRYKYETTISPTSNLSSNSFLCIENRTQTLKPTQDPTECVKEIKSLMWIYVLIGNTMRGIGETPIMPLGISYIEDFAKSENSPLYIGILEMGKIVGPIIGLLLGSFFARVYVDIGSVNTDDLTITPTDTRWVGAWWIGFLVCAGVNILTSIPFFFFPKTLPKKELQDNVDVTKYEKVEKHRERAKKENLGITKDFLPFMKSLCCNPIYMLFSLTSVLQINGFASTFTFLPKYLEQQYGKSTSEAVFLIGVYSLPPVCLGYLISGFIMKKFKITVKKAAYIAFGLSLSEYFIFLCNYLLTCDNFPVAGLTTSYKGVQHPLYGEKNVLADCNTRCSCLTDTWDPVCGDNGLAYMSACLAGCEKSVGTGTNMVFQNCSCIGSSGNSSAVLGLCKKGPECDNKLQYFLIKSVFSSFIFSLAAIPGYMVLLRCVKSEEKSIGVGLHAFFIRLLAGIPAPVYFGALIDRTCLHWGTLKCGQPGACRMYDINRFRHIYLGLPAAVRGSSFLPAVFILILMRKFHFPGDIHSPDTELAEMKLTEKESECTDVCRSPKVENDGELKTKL
Procedure: 293FT cells were purchased from Thermo Fisher Scientific, Inc.. The cells were grown in Dulbecco's modified Eagle medium (supplemented with 4.5 g/L glucose and 2 mM L‐glutamine) at 37°C, 5% CO2, and 95% humidity. The cells were passaged 3 times per week by harvesting cells using trypsin and plating at a density of 1.0 × 10^4 cells/cm^2 in a 10 cm cell culture plate for maintenance culture. The 293FT cells were detached using trypsin and re‐seeded at a density of 2.5 × 10^4 cells/cm^2 in BioCoat™ Collagen I 6‐well plates (Corning Inc.) for transfection and then treated with 1.2 μg of plasmid vector and 3.2 μl of Lipofectamine™ 2000 Transfection Reagent (Thermo Fisher Scientific, Inc.) according to the manufacturer's instructions. After a 3‐h treatment, the transfection medium was replaced with a fresh cell culture medium and incubated at 37°C with 95% humidity and 5% CO2 until ready for the assay.
Transport experiments were conducted approximately 24 h post‐transfection. The experiments were initiated by aspirating culture medium and addition of pre‐warmed radiolabeled substrate solution (final 1.0% of acetonitrile or 0.9% of ethanol in phosphate‐buffered saline (PBS[−])) to each well. After a 10‐min incubation, cells were washed twice with 1 ml of ice‐cold PBS(−) and lysed with 700 μl of 1.0 M NaOH for 3 h or more at room temperature. The lysate was transferred to a 1.5‐ml tube, and neutralized with 350 μl of 2.0 M HCl and 350 μl of 2.0% sodium dodecyl sulfate (SDS) solution. From the lysate, 1.0 ml was transferred to a vial containing 10 ml of Emulsifier Scintillator Plus to measure the radioactivity in the LSC. The protein concentration of the cell lysate was also measured using a Pierce™ BCA Protein Assay Kit (Thermo Fisher Scientific, Inc.), which was used to normalize, according to the cell number, the radioactivity in the cell lysate extract. The protein assay was performed in duplicate. Each sample type was assayed in triplicate wells, and each run was performed twice. […] Each sample type was assayed in triplicate wells.

[3] = Female, epyrifenacil 1 mg/kg p.o. + Digoxin 100 mg/kg i.p.
[4] = Female, epyrifenacil 1 mg/kg p.o. + Digoxin 200 mg/kg p.o.
[5] = Female, epyrifenacil 1 mg/kg p.o. + Rifampicin 200 mg/kg p.o.
[6] = Female, epyrifenacil 1 mg/kg p.o., no inhibitor
[7] = Female, 2 h after epyrifenacil 1 mg/kg p.o. + Digoxin 100 mg/kg i.p.
[8] = Female, 2 h after epyrifenacil 1 mg/kg p.o. + Digoxin 100 mg/kg i.p., listed as [^14C]Epyrifenacil
[9] = Female, 2 h after epyrifenacil 1 mg/kg p.o. + Digoxin 200 mg/kg p.o.
[10] = Female, 2 h after epyrifenacil 1 mg/kg p.o. + Digoxin 200 mg/kg p.o., listed as [^14C]Epyrifenacil
[11] = Female, 2 h after epyrifenacil 1 mg/kg p.o. + Rifampicin 200 mg/kg p.o.
[12] = Female, 2 h after epyrifenacil 1 mg/kg p.o. + Rifampicin 200 mg/kg p.o., listed as [^14C]Epyrifenacil
[13] = Female, 2 h after epyrifenacil 1 mg/kg p.o., no inhibitor
[14] = Female, 2 h after epyrifenacil 1 mg/kg p.o., no inhibitor, listed as [^14C]Epyrifenacil
[15] = Male, epyrifenacil 1 mg/kg p.o. + Digoxin 100 mg/kg i.p.
[16] = Male, epyrifenacil 1 mg/kg p.o. + Digoxin 200 mg/kg p.o.
[17] = Male, epyrifenacil 1 mg/kg p.o. + Rifampicin 200 mg/kg p.o.
[18] = Male, epyrifenacil 1 mg/kg p.o., no inhibitor
[19] = Male, 2 h after epyrifenacil 1 mg/kg p.o. + Digoxin 100 mg/kg i.p.
[20] = Male, 2 h after epyrifenacil 1 mg/kg p.o. + Digoxin 100 mg/kg i.p., listed as [^14C]Epyrifenacil
[21] = Male, 2 h after epyrifenacil 1 mg/kg p.o. + Digoxin 200 mg/kg p.o.
[22] = Male, 2 h after epyrifenacil 1 mg/kg p.o. + Digoxin 200 mg/kg p.o., listed as [^14C]Epyrifenacil
[23] = Male, 2 h after epyrifenacil 1 mg/kg p.o. + Rifampicin 200 mg/kg p.o.
[24] = Male, 2 h after epyrifenacil 1 mg/kg p.o. + Rifampicin 200 mg/kg p.o., listed as [^14C]Epyrifenacil
[25] = Male, 2 h after epyrifenacil 1 mg/kg p.o., no inhibitor
[26] = Male, 2 h after epyrifenacil 1 mg/kg p.o., no inhibitor, listed as [^14C]Epyrifenacil

SMILES: CCOC(=O)COc1ncccc1Oc1cc(-n2c(=O)cc(C(F)(F)F)n(C)c2=O)c(F)cc1Cl [Epyrifenacil, ethyl[(3‐{2‐chloro‐4‐fluoro‐5‐[3‐methyl‐2,6‐dioxo‐4‐(trifluoromethyl)‐3,6‐dihydropyrimidin‐1(2H)‐yl]phenoxy}pyridin‐2‐yl)oxy]acetate]
- Kidney/plasma ratio of ^14C [1, 3]: (2.2)
- Liver/plasma ratio of ^14C [1, 3]: (41)
- Kidney/plasma ratio of ^14C [1, 4]: (1.6)
- Liver/plasma ratio of ^14C [1, 4]: (43)
- Liver/plasma ratio of ^14C ([1]; Female, epyrifenacil 1 mg/kg p.o. + Digoxin 200 mg/kg p.o., listed as [^14C]epyrifenacil): ca. 43
- Kidney/plasma ratio of ^14C [1, 5]: (0.60)
- Liver/plasma ratio of ^14C [1, 5]: (4.0)
- Liver/plasma ratio of ^14C ([1]; Female, epyrifenacil 1 mg/kg p.o. + Rifampicin 200 mg/kg p.o., listed as [^14C]epyrifenacil): ~4
- Kidney/plasma ratio of ^14C [1, 6]: (1.3)
- Liver/plasma ratio of ^14C [1, 6]: (35)
- Liver/plasma ratio of ^14C ([1]; Female, epyrifenacil 1 mg/kg p.o., no inhibitor, listed as [^14C]epyrifenacil): ~35
- ^14C‐Concentration, Kidney [1, 7]: 0.184 ± 0.0360 μg eq. of epyrifenacil/g tissue
- ^14C‐Concentration, Liver [1, 7]: 3.390 ± 1.9870 μg eq. of epyrifenacil/g tissue
- ^14C‐Concentration, Plasma [1, 7]: 0.082 ± 0.0574 μg eq. of epyrifenacil/g tissue
- ^14C‐Concentration, Kidney [1, 8]: 0.184 μg eq. of epyrifenacil/g tissue
- ^14C‐Concentration, Liver [1, 8]: 3.390 μg eq. of epyrifenacil/g tissue
- ^14C‐Concentration, Plasma [1, 8]: 0.082 μg eq. of epyrifenacil/g tissue
- ^14C‐Concentration, Kidney [1, 9]: 0.086 ± 0.0096 μg eq. of epyrifenacil/g tissue
- ^14C‐Concentration, Liver [1, 9]: 2.344 ± 0.4524 μg eq. of epyrifenacil/g tissue
- ^14C‐Concentration, Plasma [1, 9]: 0.054 ± 0.0118 μg eq. of epyrifenacil/g tissue
- ^14C‐Concentration, Kidney [1, 10]: 0.086 μg eq. of epyrifenacil/g tissue
- ^14C‐Concentration, Liver [1, 10]: 2.344 μg eq. of epyrifenacil/g tissue
- ^14C‐Concentration, Plasma [1, 10]: 0.054 μg eq. of epyrifenacil/g tissue
- ^14C‐Concentration, Kidney [1, 11]: 0.130 ± 0.0548 μg eq. of epyrifenacil/g tissue
- ^14C‐Concentration, Liver [1, 11]: 0.880 ± 0.4160 μg eq. of epyrifenacil/g tissue
- ^14C‐Concentration, Plasma [1, 11]: 0.217 ± 0.1551 μg eq. of epyrifenacil/g tissue
- ^14C‐Concentration, Kidney [1, 12]: 0.130 μg eq. of epyrifenacil/g tissue
- ^14C‐Concentration, Liver [1, 12]: 0.880 μg eq. of epyrifenacil/g tissue
- ^14C‐Concentration, Plasma [1, 12]: 0.217 μg eq. of epyrifenacil/g tissue
- ^14C‐Concentration, Kidney [1, 13]: 0.190 ± 0.0511 μg eq. of epyrifenacil/g tissue
- ^14C‐Concentration, Liver [1, 13]: 5.136 ± 1.1225 μg eq. of epyrifenacil/g tissue
- ^14C‐Concentration, Plasma [1, 13]: 0.147 ± 0.0642 μg eq. of epyrifenacil/g tissue
- ^14C‐Concentration, Kidney [1, 14]: 0.190 μg eq. of epyrifenacil/g tissue
- ^14C‐Concentration, Liver [1, 14]: 5.136 μg eq. of epyrifenacil/g tissue
- ^14C‐Concentration, Plasma [1, 14]: 0.147 μg eq. of epyrifenacil/g tissue
- Kidney/plasma ratio of ^14C [1, 15]: (1.7)
- Liver/plasma ratio of ^14C [1, 15]: (67)
- Kidney/plasma ratio of ^14C [1, 16]: (2.6)
- Liver/plasma ratio of ^14C [1, 16]: (97)
- Liver/plasma ratio of ^14C ([1]; Male, epyrifenacil 1 mg/kg p.o. + Digoxin 200 mg/kg p.o., listed as [^14C]epyrifenacil): ca. 97
- Kidney/plasma ratio of ^14C [1, 17]: (0.96)
- Liver/plasma ratio of ^14C [1, 17]: (11)
- Kidney/plasma ratio of ^14C [1, 18]: (1.3)
- Liver/plasma ratio of ^14C [1, 18]: (73)
- Liver/plasma ratio of ^14C ([1]; Male, epyrifenacil 1 mg/kg p.o., no inhibitor, listed as [^14C]epyrifenacil): ca. 73
- ^14C‐Concentration, Kidney [1, 19]: 0.140 ± 0.0527 μg eq. of epyrifenacil/g tissue
- ^14C‐Concentration, Liver [1, 19]: 5.527 ± 1.3453 μg eq. of epyrifenacil/g tissue
- ^14C‐Concentration, Plasma [1, 19]: 0.083 ± 0.0027 μg eq. of epyrifenacil/g tissue
- ^14C‐Concentration, Kidney [1, 20]: 0.140 μg eq. of epyrifenacil/g tissue
- ^14C‐Concentration, Liver [1, 20]: 5.527 μg eq. of epyrifenacil/g tissue
- ^14C‐Concentration, Plasma [1, 20]: 0.083 μg eq. of epyrifenacil/g tissue
- ^14C‐Concentration, Kidney [1, 21]: 0.044 ± 0.0051 μg eq. of epyrifenacil/g tissue
- ^14C‐Concentration, Liver [1, 21]: 1.647 ± 0.7217 μg eq. of epyrifenacil/g tissue
- ^14C‐Concentration, Plasma [1, 21]: 0.017 ± 0.0064 μg eq. of epyrifenacil/g tissue
- ^14C‐Concentration, Kidney [1, 22]: 0.044 μg eq. of epyrifenacil/g tissue
- ^14C‐Concentration, Liver [1, 22]: 1.647 μg eq. of epyrifenacil/g tissue
- ^14C‐Concentration, Plasma [1, 22]: 0.017 μg eq. of epyrifenacil/g tissue
- ^14C‐Concentration, Kidney [1, 23]: 0.144 ± 0.0794 μg eq. of epyrifenacil/g tissue
- ^14C‐Concentration, Liver [1, 23]: 1.671 ± 1.2478 μg eq. of epyrifenacil/g tissue
- ^14C‐Concentration, Plasma [1, 23]: 0.151 ± 0.0791 μg eq. of epyrifenacil/g tissue
- ^14C‐Concentration, Kidney [1, 24]: 0.144 μg eq. of epyrifenacil/g tissue
- ^14C‐Concentration, Liver [1, 24]: 1.671 μg eq. of epyrifenacil/g tissue
- ^14C‐Concentration, Plasma [1, 24]: 0.151 μg eq. of epyrifenacil/g tissue
- ^14C‐Concentration, Kidney [1, 25]: 0.124 ± 0.0180 μg eq. of epyrifenacil/g tissue
- ^14C‐Concentration, Liver [1, 25]: 6.763 ± 0.1014 μg eq. of epyrifenacil/g tissue
- ^14C‐Concentration, Plasma [1, 25]: 0.092 ± 0.0066 μg eq. of epyrifenacil/g tissue
- ^14C‐Concentration, Kidney [1, 26]: 0.124 μg eq. of epyrifenacil/g tissue
- ^14C‐Concentration, Liver [1, 26]: 6.763 μg eq. of epyrifenacil/g tissue
- ^14C‐Concentration, Plasma [1, 26]: 0.092 μg eq. of epyrifenacil/g tissue
- Liver/plasma ratio of ^14C‐concentration ([1]; female): 41–43
- ^14C‐concentration in liver ([1]; females, co‐administration of RIF 200 mg/kg oral): 0.880 ppm
- ^14C‐concentration in liver ([1]; females, epyrifenacil 1 mg/kg p.o., no inhibitor): 5.136 ± 1.1225 ppm
- Liver/plasma ratio of ^14C‐concentration ([1]; male): 67–97
- ^14C‐concentration in liver ([1]; males, co‐administration of RIF 200 mg/kg oral): 1.671 ppm
- ^14C‐concentration in liver ([1]; males, epyrifenacil 1 mg/kg p.o., no inhibitor, ppm = µg eq. of epyrifenacil/g): 6.763 ± 0.1014 ppm
- Hepatocyte injury [2]: produced hepatocyte injury

SMILES: CO[C@H]1/C=C/O[C@@]2(C)Oc3c(C)c(O)c4c(O)c(c(/C=N/N5CCN(C)CC5)c(O)c4c3C2=O)NC(=O)/C(C)=C\C=C\[C@H](C)[C@H](O)[C@@H](C)[C@@H](O)[C@@H](C)[C@H](OC(C)=O)[C@@H]1C [RIF, Rifampicin]
- Uptake of S‐3100‐CA, % of that by vehicle‐treated cells (mouse Oatp1a1): less than 40%
